Laboratory results: patent US10023563B2, “Cyclic compounds substituted by a condensed ring system” (BASF SE, priority 2014, dated 2018)

Experiments:
Type in all cases: in vivo
[1] = tested on: Diamond Back Moth (Plutella xylostella); assay: Diamond back moth leaf-dip test; conditions: cabbage leaves dipped, 3rd instar larvae, 72 hours after treatment, read-out: mortality in comparison with untreated controls
Protocol: B.1 Diamond Back Moth (Plutella xylostella)
The active compound was dissolved at the desired concentration in a mixture of 1:1 (vol:vol) distilled water:aceteone. Surfactant (Kinetic HV) was added at a rate of 0.01% (vol/vol). The test solution was prepared at the day of use.
Leaves of cabbage were dipped in test solution and air-dried. Treated leaves were placed in petri dishes lined with moist filter paper and inoculated with ten 3rd instar larvae. Mortality was recorded 72 hours after treatment. Feeding damages were also recorded using a scale of 0-100%.

[2] = tested on: Green Peach Aphid (Myzus persicae); assay: Green peach aphid systemic test on artificial diet; conditions: 72 h, adult aphids on treated artificial diet, 3 days, read-out: mortality in comparison with untreated controls
Excerpt: B.2 Green Peach Aphid (Myzus persicae)
For evaluating control of green peach aphid (Myzus persicae) through systemic means the test unit consisted of 96-well-microtiter plates containing liquid artificial diet under an artificial membrane.
The compounds were formulated using a solution containing 75% v/v water and 25% v/v DMSO. Different concentrations of formulated compounds were pipetted into the aphid diet, using a custom built pipetter, at two replications.
After application, 5-8 adult aphids were placed on the artificial membrane inside the microtiter plate wells. The aphids were then allowed to suck on the treated aphid diet and incubated at about 23±1° C. and about 50±5% relative humidity for 3 days. Aphid mortality and fecundity was then visually assessed.

[3] = tested on: Vetch Aphid (Megoura viciae); assay: Vetch aphid broad bean leaf disk test; conditions: foliar, 120 h, sprayed leaf disks, adult aphids, 5 days, read-out: mortality in comparison with untreated controls
Protocol: B.3 Vetch Aphid (Megoura viciae)
For evaluating control of vetch aphid (Megoura viciae) through contact or systemic means the test unit consisted of 24-well-microtiter plates containing broad bean leaf disks.
The compounds were formulated using a solution containing 75% v/v water and 25% v/v DMSO. Different concentrations of formulated compounds were sprayed onto the leaf disks at 2.5 μl, using a custom built micro atomizer, at two replications.
After application, the leaf disks were air-dried and 5-8 adult aphids placed on the leaf disks inside the microtiter plate wells. The aphids were then allowed to suck on the treated leaf disks and incubated at about 23±1° C. and about 50±5% relative humidity for 5 days. Aphid mortality and fecundity was then visually assessed.

[4] = tested on: Tobacco Budworm (Heliothis virescens); assay: Tobacco budworm insect diet microtiter test; conditions: 120 h, egg and larval mortality on sprayed insect diet, 5 days, read-out: mortality in comparison with untreated controls
Protocol: B.4 Tobacco Budworm (Heliothis virescens)
For evaluating control of tobacco budworm (Heliothis virescens) the test unit consisted of 96-well-microtiter plates containing an insect diet and 15-25 H. virescens eggs.
The compounds were formulated using a solution containing 75% v/v water and 25% v/v DMSO. Different concentrations of formulated compounds were sprayed onto the insect diet at 10 μl, using a custom built micro atomizer, at two replications.
(§1) After application, microtiter plates were incubated at about 28±1° C. and about 80±5% relative humidity for 5 days. Egg and larval mortality was then visually assessed.

[5] = tested on: Boll Weevil (Anthonomus grandis); assay: Boll weevil insect diet microtiter test; conditions: 120 h, egg and larval mortality on sprayed insect diet, 5 days, read-out: mortality in comparison with untreated controls
Protocol: B.5 Boll Weevil (Anthonomus grandis)
For evaluating control of boll weevil (Anthonomus grandis) the test unit consisted of 96-well-microtiter plates containing an insect diet and 5-10 A. grandis eggs.
The compounds were formulated using a solution containing 75% v/v water and 25% v/v DMSO. Different concentrations of formulated compounds were sprayed onto the insect diet at 5 μl, using a custom built micro atomizer, at two replications.
After application, microtiter plates were incubated at about 25±1° C. and about 75±5% relative humidity for 5 days. Egg and larval mortality was then visually assessed.

[6] = tested on: Mediterranean Fruitfly (Ceratitis capitata); assay: Mediterranean fruitfly insect diet microtiter test; conditions: 120 h, egg and larval mortality on sprayed insect diet, 5 days, read-out: mortality in comparison with untreated controls
Protocol: B.6 Mediterranean Fruitfly (Ceratitis capitata)
For evaluating control of Mediterranean fruitfly (Ceratitis capitata) the test unit consisted of microtiter plates containing an insect diet and 50-80 C. capitata eggs. The compounds were formulated using a solution containing 75% v/v water and 25% v/v DMSO. Different concentrations of formulated compounds were sprayed onto the insect diet at 5 μl, using a custom built micro atomizer, at two replications.
as §1

[7] = tested on: Orchid Thrips (Dichromothrips Corbetti); assay: Orchid thrips floral-immersion test; conditions: dipped orchid petals, adult thrips, 72 hours after treatment, read-out: mortality in comparison with untreated controls
Protocol: B.7 Orchid Thrips (Dichromothrips Corbetti)
Dichromothrips corbetti adults used for bioassay were obtained from a colony maintained continuously under laboratory conditions. For testing purposes, the test compound is diluted in a 1:1 mixture of acetone:water (vol:vol), plus Kinetic HV at a rate of 0.01% v/v.
Thrips potency of each compound was evaluated by using a floral-immersion technique. All petals of individual, intact orchid flowers were dipped into treatment solution and allowed to dry in Petri dishes. Treated petals were placed into individual resealable plastic along with about 20 adult thrips. All test arenas were held under continuous light and a temperature of about 28° C. for duration of the assay. After 3 days, the numbers of live thrips were counted on each petal. The percent mortality was recorded 72 hours after treatment.

[8] = tested on: Rice Green Leafhopper (Nephotettix virescens); assay: Rice green leafhopper sprayed rice seedling test; conditions: sprayed potted rice seedlings, adults, after 72 hours, read-out: mortality in comparison with untreated controls
Protocol: B.8 Rice Green Leafhopper (Nephotettix virescens)
Rice seedlings were cleaned and washed 24 hours before spraying. The active compounds were formulated in 1:1 acetone:water (vol:vol), and 0.01% vol/vol surfactant (Kinetic HV) was added. Potted rice seedlings were sprayed with 5-6 ml test solution, air dried, covered with Mylar cages and inoculated with 10 adults. Treated rice plants were kept at about 28-29° C. and relative humidity of about 50-60%. Percent mortality was recorded after 72 hours.

[9] = tested on: Southern Armyworm (Spodoptera eridania); assay: Southern armyworm sprayed lima bean test; conditions: foliar, 96 h, sprayed lima bean foliage, larvae, 4 days after treatment, read-out: mortality in comparison with untreated controls
Protocol: B.10 Southern Armyworm (Spodoptera eridania)
The active compounds were formulated in cyclohexanone as a 10,000 ppm solution supplied in tubes. The tubes were inserted into an automated electrostatic sprayer equipped with an atomizing nozzle and they served as stock solutions for which lower dilutions were made in 50% acetone:50% water (v/v). A nonionic surfactant (Kinetic®) was included in the solution at a volume of 0.01% (v/v).
Lima bean plants (variety Sieva) were grown 2 plants to a pot and selected for treatment at the 1st true leaf stage. Test solutions were sprayed onto the foliage by an automated electrostatic plant sprayer equipped with an atomizing spray nozzle. The plants were dried in the sprayer fume hood and then removed from the sprayer. Each pot was placed into perforated plastic bags with a zip closure. About 10 to 11 armyworm larvae were placed into the bag and the bags zipped closed. Test plants were maintained in a growth room at about 25° C. and about 20-40% relative humidity for 4 days, avoiding direct exposure to fluorescent light (24 hour photoperiod) to prevent trapping of heat inside the bags. Mortality and reduced feeding were assessed 4 days after treatment, compared to untreated control plants.

O=C(CNC(=O)c1ccc(C2=CSC(c3cc(Cl)cc(Cl)c3)(C(F)(F)F)C2)c2c1CCC2)NCC(F)(F)F (stereo not drawn) [Compound 1-3, 7-[2-(3,5-Dichlorophenyl)-2-(trifluoromethyl)-3H-thiophen-4-yl]-N-[2-oxo-2-(2,2,2-trifluoroethylamino)ethyl]indane-4-carboxamide]
≥ 75%: mortality at 300 ppm [1] | mortality at 2500 ppm [2] | mortality at 2500 ppm [3] | mortality at 2500 ppm [4] | mortality at 2500 ppm [5] | mortality at 2500 ppm [6] | mortality at 300 ppm [7] | mortality at 2500 ppm [8] | mortality at 10 ppm [9]
